Laboratory results reported in article PMC6789782, “Safety Pharmacological Evaluation of the Coffee Component, Caffeoylquinic Acid, and Its Metabolites, Using Ex Vivo and In Vitro Profiling Assays” (Pharmaceuticals, 2019).
Like-named read-outs stand apart in the source and are kept apart here.

Assays:
Assay in all cases: In vitro profiling, binding assay
[1] = target: 5-HT2A (Homo sapiens, UniProt P28223)
Method: (§1) Binding and functional assays of CGAs with the proteins known to be pharmacological targets related to the CVS, CNS, and GI functions were conducted. […] In the binding assay, we measured the radiation activity of the solution containing filtered proteins that bound to the tested compound or high-affinity ligand, while in the functional assays, we measured the reaction product. The ability of the test compound to interact with the tested targets was measured as the inhibition of ligand binding to the target or reaction product production (% inhibition).

[2] = target: 5-HT1B (Homo sapiens, UniProt P28222)
Method: as §1

[3] = target: Adrenergic β1 (Homo sapiens, UniProt P08588)
Method: as §1

[4] = target: Opiate κ (Homo sapiens, UniProt P41145)
Method: as §1

[5] = target: T1, 5-HT3 (Homo sapiens, UniProt P46098)
T1 sequence (P46098 24-478): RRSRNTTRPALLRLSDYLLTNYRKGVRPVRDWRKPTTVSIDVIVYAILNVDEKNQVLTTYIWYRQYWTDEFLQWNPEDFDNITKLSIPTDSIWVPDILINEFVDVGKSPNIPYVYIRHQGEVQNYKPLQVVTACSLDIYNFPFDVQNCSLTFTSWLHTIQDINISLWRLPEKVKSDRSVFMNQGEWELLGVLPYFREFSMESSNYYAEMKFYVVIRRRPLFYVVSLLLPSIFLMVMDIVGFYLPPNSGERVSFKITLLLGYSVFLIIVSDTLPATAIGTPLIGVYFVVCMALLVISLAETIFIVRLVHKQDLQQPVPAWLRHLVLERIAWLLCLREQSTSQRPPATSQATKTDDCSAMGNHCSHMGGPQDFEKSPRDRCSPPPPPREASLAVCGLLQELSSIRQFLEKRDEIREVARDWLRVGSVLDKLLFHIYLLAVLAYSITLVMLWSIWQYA
Method: as §1

[6] = target: T2, Muscarinic M1 (Homo sapiens, UniProt P11229)
T2 sequence (P11229 1-460): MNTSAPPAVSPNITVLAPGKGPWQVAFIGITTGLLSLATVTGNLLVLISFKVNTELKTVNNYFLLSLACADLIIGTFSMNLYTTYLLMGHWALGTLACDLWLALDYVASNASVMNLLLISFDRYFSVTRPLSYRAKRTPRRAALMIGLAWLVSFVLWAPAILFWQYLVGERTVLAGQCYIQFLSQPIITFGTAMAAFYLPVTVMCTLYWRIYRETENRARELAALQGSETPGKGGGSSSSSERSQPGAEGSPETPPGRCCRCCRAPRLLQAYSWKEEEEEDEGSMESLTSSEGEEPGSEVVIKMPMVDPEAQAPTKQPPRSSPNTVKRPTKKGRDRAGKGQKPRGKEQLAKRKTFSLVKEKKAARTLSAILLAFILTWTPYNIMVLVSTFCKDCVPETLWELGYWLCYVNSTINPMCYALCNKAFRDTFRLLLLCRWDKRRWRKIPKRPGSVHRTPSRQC
Method: as §1

[7] = target: Transporter, Dopamine (DAT) (Homo sapiens, UniProt Q01959)
Method: as §1

[8] = target: T3, Cholecystokinin CCK1 (CCKA) (Homo sapiens, UniProt P32238)
T3 sequence (P32238 1-428): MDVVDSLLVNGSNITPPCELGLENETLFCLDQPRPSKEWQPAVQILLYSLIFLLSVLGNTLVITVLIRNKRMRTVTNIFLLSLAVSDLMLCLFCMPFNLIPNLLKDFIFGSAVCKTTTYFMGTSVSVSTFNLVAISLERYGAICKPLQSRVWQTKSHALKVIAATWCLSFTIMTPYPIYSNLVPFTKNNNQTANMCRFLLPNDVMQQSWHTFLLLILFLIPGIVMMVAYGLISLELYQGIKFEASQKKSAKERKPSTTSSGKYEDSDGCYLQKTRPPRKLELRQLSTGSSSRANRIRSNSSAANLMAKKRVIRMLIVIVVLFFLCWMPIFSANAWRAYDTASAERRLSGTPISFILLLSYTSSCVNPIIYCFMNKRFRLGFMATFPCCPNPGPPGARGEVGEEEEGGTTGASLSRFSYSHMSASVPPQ
Method: as §1

[9] = target: Muscarinic M3 (Homo sapiens, UniProt P20309)
Method: as §1

[10] = target: T4, Endothelin ETA (Homo sapiens, UniProt P25101)
T4 sequence (P25101 21-427): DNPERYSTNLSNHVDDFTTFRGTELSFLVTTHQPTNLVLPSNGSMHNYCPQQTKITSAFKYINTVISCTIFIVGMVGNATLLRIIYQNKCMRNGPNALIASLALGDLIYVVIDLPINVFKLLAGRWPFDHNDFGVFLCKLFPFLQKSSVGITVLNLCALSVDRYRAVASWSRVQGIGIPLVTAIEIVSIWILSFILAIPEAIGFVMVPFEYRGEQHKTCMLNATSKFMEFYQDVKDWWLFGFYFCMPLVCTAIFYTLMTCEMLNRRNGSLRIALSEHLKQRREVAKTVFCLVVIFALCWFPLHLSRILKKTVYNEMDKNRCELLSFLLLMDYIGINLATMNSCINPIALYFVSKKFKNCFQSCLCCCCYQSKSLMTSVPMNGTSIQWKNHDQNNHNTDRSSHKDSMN
Method: as §1

[11] = target: Adenosine A2A (Homo sapiens, UniProt P29274)
Method: as §1

[12] = target: Vasopressin V1A (Homo sapiens, UniProt P37288)
Method: as §1

[13] = target: Transporter, Norepinephrine (NET) (Homo sapiens, UniProt P23975)
Method: as §1

[14] = target: Opiate δ1 (Homo sapiens, UniProt P41143)
Method: as §1

[15] = target: Dopamine D2L (Homo sapiens, UniProt P14416)
Method: as §1

[16] = target: hERG potassium channel (Homo sapiens, UniProt Q12809)
Method: as §1

[17] = 30 µM, 5-HT1B, read-out: % Inhibition
[18] = 30 µM, Adrenergic β1, read-out: % Inhibition
[19] = 30 µM, Opiate κ, read-out: % Inhibition
[20] = 30 µM, 5-HT3, read-out: % Inhibition
[21] = 30 µM, Transporter, Dopamine (DAT), read-out: % Inhibition
[22] = 30 µM, Cholecystokinin CCK1 (CCKA), read-out: % Inhibition
[23] = 30 µM, Endothelin ETA, read-out: % Inhibition
[24] = 30 µM, Adenosine A2A, read-out: % Inhibition
[25] = 30 µM, Vasopressin V1A, read-out: % Inhibition
[26] = 30 µM, Transporter, Norepinephrine (NET), read-out: % Inhibition
[27] = 30 µM, Opiate δ1, read-out: % Inhibition
[28] = 30 µM, Dopamine D2L, read-out: % Inhibition
[29] = probe radioisotope-labeled high-affinity ligand (not named), 30 µM, Potassium Channel hERG, read-out: % Inhibition

Chain of Transporter, Norepinephrine (NET) (P23975 whole entry): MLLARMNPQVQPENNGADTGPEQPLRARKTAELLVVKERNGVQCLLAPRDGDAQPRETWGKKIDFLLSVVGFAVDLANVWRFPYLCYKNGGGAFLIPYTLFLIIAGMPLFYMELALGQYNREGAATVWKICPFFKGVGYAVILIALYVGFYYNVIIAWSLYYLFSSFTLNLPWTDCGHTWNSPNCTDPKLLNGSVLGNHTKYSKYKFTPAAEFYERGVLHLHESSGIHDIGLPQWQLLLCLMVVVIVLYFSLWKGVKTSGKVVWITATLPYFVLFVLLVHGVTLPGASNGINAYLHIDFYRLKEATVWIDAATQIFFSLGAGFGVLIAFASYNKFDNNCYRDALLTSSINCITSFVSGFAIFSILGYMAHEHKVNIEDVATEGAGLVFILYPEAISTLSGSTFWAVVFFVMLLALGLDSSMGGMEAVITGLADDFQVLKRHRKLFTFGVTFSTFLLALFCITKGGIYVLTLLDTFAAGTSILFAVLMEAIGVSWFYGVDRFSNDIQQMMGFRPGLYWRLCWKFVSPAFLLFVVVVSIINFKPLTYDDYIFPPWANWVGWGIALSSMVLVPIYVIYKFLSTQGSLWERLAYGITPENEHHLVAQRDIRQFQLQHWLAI
Chain of Adrenergic β1 (P08588 whole entry): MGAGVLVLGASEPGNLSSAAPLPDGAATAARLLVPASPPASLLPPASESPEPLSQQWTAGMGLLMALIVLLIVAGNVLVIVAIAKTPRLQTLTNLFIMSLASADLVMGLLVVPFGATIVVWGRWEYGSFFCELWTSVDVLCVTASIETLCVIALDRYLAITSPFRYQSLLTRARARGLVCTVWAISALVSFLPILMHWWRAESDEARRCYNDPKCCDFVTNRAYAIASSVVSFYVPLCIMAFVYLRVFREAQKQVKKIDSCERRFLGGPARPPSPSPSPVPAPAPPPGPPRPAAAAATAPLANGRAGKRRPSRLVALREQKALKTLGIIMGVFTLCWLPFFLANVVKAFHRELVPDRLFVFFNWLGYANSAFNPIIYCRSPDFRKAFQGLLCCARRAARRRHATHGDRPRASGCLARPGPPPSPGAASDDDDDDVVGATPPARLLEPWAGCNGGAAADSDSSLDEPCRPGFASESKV
Chain of Opiate κ (P41145 whole entry): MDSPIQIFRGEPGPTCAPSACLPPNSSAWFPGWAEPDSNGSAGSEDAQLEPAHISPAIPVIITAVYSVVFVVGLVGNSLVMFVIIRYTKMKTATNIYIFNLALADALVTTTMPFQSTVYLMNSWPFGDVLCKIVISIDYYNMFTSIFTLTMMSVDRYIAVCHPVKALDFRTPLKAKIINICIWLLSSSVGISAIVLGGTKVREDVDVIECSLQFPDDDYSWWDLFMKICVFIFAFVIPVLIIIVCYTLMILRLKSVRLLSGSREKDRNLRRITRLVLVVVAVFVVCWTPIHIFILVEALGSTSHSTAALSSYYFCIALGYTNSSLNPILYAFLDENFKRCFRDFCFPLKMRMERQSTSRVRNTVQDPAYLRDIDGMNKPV
Chain of Vasopressin V1A (P37288 whole entry): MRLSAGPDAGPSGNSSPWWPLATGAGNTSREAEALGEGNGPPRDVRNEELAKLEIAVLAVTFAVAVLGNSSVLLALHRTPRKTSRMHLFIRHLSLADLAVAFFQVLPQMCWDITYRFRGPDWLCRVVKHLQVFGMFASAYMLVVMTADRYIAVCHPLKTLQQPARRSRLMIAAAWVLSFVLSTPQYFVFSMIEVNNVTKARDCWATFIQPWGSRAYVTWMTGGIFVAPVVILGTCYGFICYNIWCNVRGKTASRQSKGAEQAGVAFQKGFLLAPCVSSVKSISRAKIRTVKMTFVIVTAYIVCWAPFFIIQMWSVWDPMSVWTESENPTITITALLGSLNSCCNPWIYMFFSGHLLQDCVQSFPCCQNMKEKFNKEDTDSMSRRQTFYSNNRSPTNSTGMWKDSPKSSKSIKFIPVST
Chain of Opiate δ1 (P41143 whole entry): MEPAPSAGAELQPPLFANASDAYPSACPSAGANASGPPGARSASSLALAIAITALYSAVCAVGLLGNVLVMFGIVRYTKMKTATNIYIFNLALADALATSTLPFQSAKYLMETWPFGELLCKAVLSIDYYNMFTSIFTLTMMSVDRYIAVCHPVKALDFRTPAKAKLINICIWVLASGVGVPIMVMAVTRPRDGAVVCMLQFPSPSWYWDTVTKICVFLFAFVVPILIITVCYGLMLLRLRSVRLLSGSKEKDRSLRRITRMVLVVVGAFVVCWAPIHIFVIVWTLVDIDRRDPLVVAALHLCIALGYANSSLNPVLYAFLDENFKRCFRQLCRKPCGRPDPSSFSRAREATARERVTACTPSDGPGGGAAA
Chain of Transporter, Dopamine (DAT) (Q01959 whole entry): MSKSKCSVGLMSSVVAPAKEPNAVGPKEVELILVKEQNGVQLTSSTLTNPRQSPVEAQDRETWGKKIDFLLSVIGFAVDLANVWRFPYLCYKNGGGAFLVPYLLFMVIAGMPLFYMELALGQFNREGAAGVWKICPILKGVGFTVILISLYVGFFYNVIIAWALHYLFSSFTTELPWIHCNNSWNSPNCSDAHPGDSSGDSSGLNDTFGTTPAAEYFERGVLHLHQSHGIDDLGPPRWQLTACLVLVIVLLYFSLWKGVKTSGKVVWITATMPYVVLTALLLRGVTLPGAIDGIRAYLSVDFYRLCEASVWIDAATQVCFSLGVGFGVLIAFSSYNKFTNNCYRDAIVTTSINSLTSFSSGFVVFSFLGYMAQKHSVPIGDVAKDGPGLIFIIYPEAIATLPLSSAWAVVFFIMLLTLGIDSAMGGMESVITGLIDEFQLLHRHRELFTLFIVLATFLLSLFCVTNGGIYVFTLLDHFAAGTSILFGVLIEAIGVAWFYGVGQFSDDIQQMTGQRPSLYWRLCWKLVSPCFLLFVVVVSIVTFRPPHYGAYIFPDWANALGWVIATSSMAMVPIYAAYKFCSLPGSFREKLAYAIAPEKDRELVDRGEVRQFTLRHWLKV
Chain of Adenosine A2A (P29274 whole entry): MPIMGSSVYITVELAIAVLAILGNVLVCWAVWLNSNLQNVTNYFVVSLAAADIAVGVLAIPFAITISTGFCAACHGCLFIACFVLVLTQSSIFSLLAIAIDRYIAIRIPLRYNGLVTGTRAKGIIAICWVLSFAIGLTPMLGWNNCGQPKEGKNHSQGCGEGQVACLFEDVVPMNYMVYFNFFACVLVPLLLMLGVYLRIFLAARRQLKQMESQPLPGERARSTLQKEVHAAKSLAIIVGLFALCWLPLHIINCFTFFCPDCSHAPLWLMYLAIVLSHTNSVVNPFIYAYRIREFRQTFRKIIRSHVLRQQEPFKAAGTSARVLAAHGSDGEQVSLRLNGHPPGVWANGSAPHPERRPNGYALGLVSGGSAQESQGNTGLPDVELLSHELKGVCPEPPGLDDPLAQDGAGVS
Chain of 5-HT1B (P28222 whole entry): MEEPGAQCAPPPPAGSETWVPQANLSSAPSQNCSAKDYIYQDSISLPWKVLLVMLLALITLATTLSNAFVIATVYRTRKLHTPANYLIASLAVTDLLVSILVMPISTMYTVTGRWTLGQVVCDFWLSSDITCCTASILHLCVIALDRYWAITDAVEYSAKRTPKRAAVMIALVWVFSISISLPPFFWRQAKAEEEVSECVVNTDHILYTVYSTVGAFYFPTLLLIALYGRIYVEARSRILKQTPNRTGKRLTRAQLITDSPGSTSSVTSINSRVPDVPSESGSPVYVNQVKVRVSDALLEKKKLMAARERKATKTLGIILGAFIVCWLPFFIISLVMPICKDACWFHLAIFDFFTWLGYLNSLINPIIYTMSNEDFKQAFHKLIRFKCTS
Chain of Dopamine D2L (P14416 whole entry): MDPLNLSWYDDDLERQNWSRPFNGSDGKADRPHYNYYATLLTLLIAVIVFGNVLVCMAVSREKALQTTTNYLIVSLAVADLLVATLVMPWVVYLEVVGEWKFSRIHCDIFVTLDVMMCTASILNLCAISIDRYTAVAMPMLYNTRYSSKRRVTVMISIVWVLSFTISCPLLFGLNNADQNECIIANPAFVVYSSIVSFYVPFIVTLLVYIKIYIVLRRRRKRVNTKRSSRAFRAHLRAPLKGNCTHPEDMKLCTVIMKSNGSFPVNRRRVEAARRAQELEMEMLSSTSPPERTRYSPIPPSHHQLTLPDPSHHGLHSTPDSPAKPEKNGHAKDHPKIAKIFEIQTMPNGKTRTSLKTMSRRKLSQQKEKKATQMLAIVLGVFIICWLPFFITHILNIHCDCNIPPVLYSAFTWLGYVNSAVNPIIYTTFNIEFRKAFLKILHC
Chain of 5-HT2A (P28223 whole entry): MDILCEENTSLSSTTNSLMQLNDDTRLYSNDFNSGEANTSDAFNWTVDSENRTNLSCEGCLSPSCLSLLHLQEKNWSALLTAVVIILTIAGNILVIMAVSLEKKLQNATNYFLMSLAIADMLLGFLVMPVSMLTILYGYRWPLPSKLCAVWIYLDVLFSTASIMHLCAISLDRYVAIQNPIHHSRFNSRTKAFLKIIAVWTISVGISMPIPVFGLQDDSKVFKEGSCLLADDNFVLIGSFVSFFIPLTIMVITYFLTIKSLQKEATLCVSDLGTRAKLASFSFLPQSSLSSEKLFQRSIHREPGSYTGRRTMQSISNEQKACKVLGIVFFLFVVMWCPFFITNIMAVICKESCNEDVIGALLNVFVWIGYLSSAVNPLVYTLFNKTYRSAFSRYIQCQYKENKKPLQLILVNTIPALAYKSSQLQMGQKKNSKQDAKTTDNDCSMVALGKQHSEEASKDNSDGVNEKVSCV

SMILES	inhibition at 30 µM [1]	inhibition at 30 µM [6]	inhibition at 30 µM [15]	inhibition at 30 µM [2, 17]	inhibition at 30 µM [3, 18]	inhibition at 30 µM [4, 19]	inhibition at 30 µM [5, 20]	inhibition at 30 µM [7, 21]	inhibition at 30 µM [8, 22]	inhibition at 30 µM [9]	inhibition at 30 µM [10, 23]	inhibition at 30 µM [11, 24]	inhibition at 30 µM [12, 25]	inhibition at 30 µM [13, 26]	inhibition at 30 µM [14, 27]	inhibition at 30 µM [15, 28]	inhibition at 30 µM [16, 29]	further results
O=C(O)/C=C/c1ccc(O)c(O)c1 [CA, caffeic acid]	7%	5%	16%															% Inhibition ([2]; 30 µM, 5-HT1B): 3%; % Inhibition ([3]; 30 µM, Adrenergic β1): 3%; % Inhibition ([4]; 30 µM, Opiate κ): 3%; % Inhibition ([5]; 30 µM, 5-HT3): −5%; % Inhibition ([7]; 30 µM, Transporter, Dopamine (DAT)): 2%; % Inhibition ([8]; 30 µM, Cholecystokinin CCK1 (CCKA)): 12%; % Inhibition ([9]; 30 µM): −3%; % Inhibition ([10]; 30 µM, Endothelin ETA): 4%; % Inhibition ([11]; 30 µM, Adenosine A2A): 4%; % Inhibition ([12]; 30 µM, Vasopressin V1A): 9%; % Inhibition ([13]; 30 µM, Transporter, Norepinephrine (NET)): 0%; % Inhibition ([14]; 30 µM, Opiate δ1): 11%; inhibition at 30 µM [16]: -19%
O=C(/C=C/c1ccc(O)c(O)c1)O[C@H]1C[C@@](O)(C(=O)O)C[C@H](O)[C@@H]1O [5-CQA, 5-O-caffeoylquinic acid]	3%	0%		-1%	-1%	-3%	-9%	-10%	10%	5%	3%	-7%	0%	-3%	5%	7%	3%	
COc1cc(/C=C/C(=O)O)ccc1O [FA, ferulic acid]			9%															inhibition at 30 µM [2]: 4%; inhibition at 30 µM [3]: -2%; inhibition at 30 µM [4]: 3%; inhibition at 30 µM [5]: -13%; inhibition at 30 µM [7]: 0%; inhibition at 30 µM [8]: 1%; inhibition at 30 µM [10]: 1%; inhibition at 30 µM [11]: -14%; inhibition at 30 µM [12]: 6%; inhibition at 30 µM [13]: 2%; inhibition at 30 µM [14]: 16%; inhibition at 30 µM ([16]; 30 µM, Potassium Channel hERG, read-out: % Inhibition): 7%
COc1cc(/C=C/C(=O)O[C@H]2C[C@@](O)(C(=O)O)C[C@H](O)[C@@H]2O)ccc1O [5-FQA, 5-O-feruloylquinic acid]	8%			-10%	-4%	-7%	-3%	6%	7%	2%	1%	2%	16%	-1%	2%	-8%	6%	inhibition at 30 µM ([6]; 30 µM, Muscarinic M1, read-out: % Inhibition): -5%
